Source: US11992499B2, “Quinoline derivatives for use in the treatment of inflammation diseases” (ABIVAX, priority 2018, dated 2024)

What was measured:
[1] = tested on: STAM model of non-alcoholic steatohepatitis; assay: STAM model of NASH: Alpha-SMA immunostaining; type: in vivo, mice; settings: for Alpha-SMA-positive area (mean ± SD): n = 8
Protocol: NASH was induced in 48 male mice by a single subcutaneous injection of 200 μg streptozotocin (STZ, Sigma-Aldrich, USA) solution 2 days after birth and feeding with high fat diet (HFD, 57 kcal % fat, Cat #HFD32, CLEA Japan, Inc., Japan) after 4 weeks of age. Compound A was administered at 3 dose levels of 10, 20 and 40 mg/kg once daily from 6 to 9 weeks of age. Compound B was administered at a dose of 40 mg/kg once daily from 6 to 9 weeks of age. Telmisartan was administered at a dose of 10 mg/kg once daily from 6 to 9 weeks of age. […] (Table 9 herein after)

Sugen hypoxia model = assay: Rat Sugen hypoxia model of pulmonary arterial hypertension: mean pulmonary pressure; type: in vivo; settings: for Effect on mean pulmonary arterial pressure: rat Sugen hypoxia model, 70 mg/kg; for Mean Pulmonary Pressure: SuHx
Protocol: Animals from Groups 2 to 5 (see Table 10) receive a single subcutaneous injection of sugen (20 mg/kg in 2 mL/kg volume) solution (10 mg/mL) on Day 0 and returned to their cages. Animals from Group 1 receive one subcutaneous injection of DMSO at 2 mL/kg (vehicle for sugen) on Day 0 and returned to their respective cages.
Groups 2-5 are placed in cages for which the controlled air is adjusted to receive a FiO2 equivalent to 0.10 (10%) using a mixture of nitrogen and ambient air controlled by the ventilated cage system. They are kept under these hypoxic conditions for 21 days. While in hypoxia, cages are cleaned and changed once a week, exposing the animals to ambient oxygen levels for less than 10 minutes. They are exposed to ambient oxygen levels from Day 22 to Day 56. Group 1 animals remain in cages exposed to ambient oxygen (normoxic) levels for 56 days. The animals are observed on a daily basis for any changes in their behaviour and general health status.
Treatment with the compound A, sildenafil or vehicle is administered as of Day 22 (Groups 2-5) as scheduled and described in Table 10. The Groups 2-4 receives a single dose per day. The reference group 5 receives sildenafil twice a day. Food and water are given ad libitum. Daily observation of the behaviour and general health status of the animals is done. Weekly body weight is taken.
Surgical Instrumentation and Measurement of Hemodynamic and Functional Parameters in Efficacy Study Animals • 1. On the selected day of surgery, rats are anaesthetized with a mixture of 2 to 2.5% isoflurane USP (Abbot Laboratories, Montreal, Canada) in oxygen, and placed on a heating pad to maintain body temperature. • 2. Rats are tracheotomized and immediately ventilated by means of a positive-pressure rodent respirator set at ≈10 ml/kg body weight at a frequency of 65-70 strokes/min. • 3. Lead II ECG contact electrodes is placed on the rat to continuously monitor the ECG during the surgical procedure. • 4. A cannula connected to a pressure transducer is inserted into the left femoral artery to measure the arterial blood pressure. • 5. A cannula connected to a pressure transducer is inserted into the right atria through the right jugular vein to measure the right atria pressure. • 6. The heart is exposed through a sternotomy and a 20GA 1.16 in Insyte is introduced into the right ventricle and rapidly hooked up to a saline filled PE-50 catheter connected to a transducer. • 7. Following a few seconds of right ventricular pressure recording, the Insyte is further advanced into the pulmonary artery to allow PAP recording for an additional 60 seconds. • 8. Hemodynamic parameters are recorded continuously for the duration of the procedure or until loss of PAP signal. • 9. Following hemodynamic monitoring, chest cavity is further opened to expose the lung. The muscle over the trachea is dissected away to remove the lungs and heart. Harvested tissue is rinsed with PBS to remove any excess of blood before to be weighed. • 10. For the histology and casting of the lungs, the process is as follows; 1) eight (8) rats per group is reserved to assess the histology of the left lung and is therefore be treated as described in point 12 of this section 8.2; 2) Two (2) rats per group serve to enable quantitative characterization of the three-dimensional vascular structure of the left lung and therefore is treated as described in section 8.3 for casting of the left lung. • 11. For histology, the left lobe is inflated using a 10 mL syringe filled with fixative (10% NBF) with attached blunt tip needle (23 g). Needle tip is inserted into the trachea, held in place with tied suture while another syringe is tied to the pulmonary artery. The lung is inflated gently at physiological pressure (20-25 mmHg) until all lobes are fully, uniformly, and consistently expanded (not allowing fixative to ooze through lung surface). This provides optimal vascular and airway expansion without causing excessive tissue disruption. […]

[2] = tested on: STAM model of non-alcoholic steatohepatitis; assay: STAM model of NASH: liver triglyceride content; type: in vivo, mice; settings: n = 8
Protocol: NASH was induced in 48 male mice by a single subcutaneous injection of 200 μg streptozotocin (STZ, Sigma-Aldrich, USA) solution 2 days after birth and feeding with high fat diet (HFD, 57 kcal % fat, Cat #HFD32, CLEA Japan, Inc., Japan) after 4 weeks of age.
Compound A was administered at 3 dose levels of 10, 20 and 40 mg/kg once daily from 6 to 9 weeks of age. Compound B was administered at a dose of 40 mg/kg once daily from 6 to 9 weeks of age. Telmisartan was administered at a dose of 10 mg/kg once daily from 6 to 9 weeks of age.
Liver total lipid-extracts were obtained by Folch's method (Folch J. et al., J. Biol. Chem. 1957; 226: 497). Liver samples were homogenized in chloroform-methanol (2:1, v/v) and incubated overnight at room temperature. After washing with chloroform-methanol-water (8:4:3, v/v/v), the extracts were evaporated to dryness, and dissolved in isopropanol. Liver triglyceride content was measured by Triglyceride E-test (FUJIFILM Wako Pure Chemical Corporation, Japan).

[3] = 10 mg/kg PO QD, 6-9 wks of age (Compound A low, Telmisartan groups)
[4] = 20 mg/kg PO QD, 6-9 wks of age (Compound A middle group)
[5] = 40 mg/kg PO QD, 6-9 wks of age (Compound A high, Compound B groups)

Row | SMILES | Alpha-SMA in the liver ([1]; summary statement, dose not stated) | Effect on mean pulmonary arterial pressure (Sugen hypoxia model) | Alpha-SMA-positive area (mean ± SD) [1, 3] [%] | Alpha-SMA-positive area (mean ± SD) [1, 4] [%] | Alpha-SMA-positive area compared with the Vehicle group ([1]; 40 mg/kg PO QD (Compound A high group)) | Alpha-SMA-positive area (mean ± SD) [1, 5] [%] | Liver triglyceride (mean ± SD) [2, 3] [mg/g liver] | Liver triglyceride (mean ± SD) [2, 4] [mg/g liver] | Liver triglyceride (mean ± SD) [2, 5] [mg/g liver] | Mean Pulmonary Pressure (Sugen hypoxia model; female rats, 70 mg/kg QD gavage Day 22 to Day 56) [mmHg] | Mean Pulmonary Pressure (Sugen hypoxia model; female rats, 120 mg/kg QD gavage Day 22 to Day 56) [mmHg] | Mean Pulmonary Pressure (Sugen hypoxia model; male rats, 70 mg/kg QD gavage Day 22 to Day 56) [mmHg] | Mean Pulmonary Pressure (Sugen hypoxia model; male rats, 120 mg/kg QD gavage Day 22 to Day 56) [mmHg]
1 | FC(F)(F)Oc1ccc(Nc2ccc3cccc(Cl)c3n2)cc1 [8-Chloro-N-(4-(trifluoromethoxy)phenyl)quinolin-2-amine] | decreases | tendency to decrease |  |  |  |  |  |  |  |  |  |  | 
2 | FC(F)(F)Oc1ccc(Nc2ccc3cccc(Cl)c3n2)cc1 [Compound A, 8-Chloro-N-(4-(trifluoromethoxy)phenyl)quinolin-2-amine] |  | tendency to decrease | 1.39 ± 1.25 | 0.91 ± 0.55 | tended to decrease | 0.85 ± 0.41 | 64.9 ± 27.6 | 63.1 ± 21.2 | 66.6 ± 25.6 | 24.1 | 34.4 | 26.8 | 33.6
